What is called Tmax is the time at which the peak concentration occurs. For orientation: MRT means the average time that molecules of a dose stay in the body.

Structures are written as SMILES. Where two headings read alike, the source gives them in different places.

The values below come from PMC8322070, “A novel orally active HDAC6 inhibitor T-518 shows a therapeutic potential for Alzheimer’s disease and tauopathy in mice” (Scientific Reports, 2021).

Data set [1] in a line: In vivo pharmacokinetics in plasma and hippocampus (LC-MS/MS). More on the design: species or system C57BL mice. Particulars: 3 mg/kg, po. On the procedure: (§1) T-518, ACY-738, Ricolinostat, and Tubastatin A were synthesized in Takeda. For in vitro cellular experiments, the compounds were solubilized with DMSO and diluted in the culture medium at the indicated concentrations. For in vivo experiments, the compound was reconstituted in 0.5% methylcellulose and administered orally at the indicated doses. After administration, mouse hippocampus was isolated and homogenized in RIPA extraction buffer (50 mM Tris–HCl, 150 mM NaCl, 1% NP-40, 0.5% sodium deoxycholate, and 0.1% SDS, pH 8.0) supplemented with protease and phosphatase inhibitor cocktail (Thermo Fischer, Waltham, MA, USA). The homogenate was centrifuged at 10,000g for 15 min and the supernatant was taken as the RIPA-soluble fraction.
The compound concentration was measured by the method previously reported with modification. Briefly, the hippocampus tissues from treated mice were isolated and homogenized in 4 volumes of saline under ice-cold conditions and stored at − 80 °C until liquid chromatography-tandem mass spectrometry (LC–MS/MS) analysis. Before analysis, samples were thawed gently on ice and mixed with three volumes of acetonitrile. The acetonitrile mixtures were vortexed and centrifuged for supernatant collection. The supernatant was diluted in mobile phase A [10 mM ammonium formate and formic acid at 100:0.2 (v/v)] and injected into the LC/MS/MS system. T-518 was analyzed in multiple reaction monitoring mode using an API4000 or API5000 instrument (Applied Biosystems, Foster City, CA, USA) equipped with a Prominence Ultra-fast liquid chromatography system (Shimadzu, Kyoto, Japan) using Shimadzu Shim- pack XR-ODS (2.2 μm, 2.0 × 30 mm) column. Mobile phase B consisted of a mixture of acetonitrile and formic acid at 100:0.2 (v/v). Chromatographic separations were performed by gradient elution at a flow rate of 0.7 mL/min. Mobile phase B was held at 5% for 0.2 min, increased linearly to 99% for 1.1 min, maintained at 99% for 0.7 min, then returned to 5% in 0.01 min, followed by re-equilibration for 0.59 min. A multiple reaction monitoring was used to detect the parent and product ions for the tandem mass spectrometry of T-518, which were corresponding to m/z 494 and m/z 374, respectively, with the negative ion mode [DP; -40, EP; -10, CE; -35, CXP; -15 (arbitrary units)]. Analyst software TM (version 1.6.2) (AB SCIEX, Framingham, MA; https://sciex.com/products/software/analyst-software) was used for data acquisition and processing.

In another data set the test system is P301S tau Tg mice. In words: Novel object recognition test. It counts as in vivo, mouse. Particulars: 1 and 3 mg/kg for 2 weeks. On the procedure: as §1
The effect of T-518 on behavioral function was examined using the novel object recognition test: The box and objects used were purchased from BrainScience Idea (Osaka, Japan). The 30 × 30 × 35 cm gray-colored test box was used. The two objects used were pyramidal, white-colored, and ceramic (object A and A′) and cylindrical, silver, and aluminum (object B). In the acquisition phase, the identical objects (objects A and A′) were symmetrically placed in the box. Each animal was placed in the box for 5 min followed by a 24-h retention interval in the home cage. […] Time spent exploring the objects were measured during both phases. […]

For `O=C1c2cc(-c3nnc(C(F)F)o3)cnc2CN1[C@@H]1CCCC[C@H]1NC(=O)C(F)(F)C(F)(F)F` [T-518, N-[(1R,2R)-2-{3-[5-(difluoromethyl)-1,3,4-oxadiazol-2-yl]-5-oxo-5H,6H,7H-pyrrolo[3,4-b]pyridin-6-yl}cyclohexyl]-2,2,3,3,3-pentafluoropropanamide], in data set [1] (Fu,b 0.4), the “average exposure in 24 h in hippocampus” value was approximately 17 nM. Also, the “Hippocampus AUC0–24 h” value in data set [1] (C57BL mice) was found to be 202 ng·h/g. In addition, the Cmax is approximately 291 nM in data set [1] (C57BL, mouse, hippocampus, Fu,b 0.4, read-out: Effective Cmax in hippocampus); 144 ng/g in data set [1] (mouse, hippocampus, C57BL mice, read-out: Hippocampus Cmax); 1040 ng/mL in data set [1] (mouse, plasma, C57BL mice, read-out: Plasma Cmax). Also, the Tmax was not above 15 min in data set [1] (C57BL, mouse, plasma and hippocampus, matrix not given, read-out: Tmax of a single oral dose); 15 min in data set [1] (mouse, hippocampus, C57BL mice, read-out: Hippocampus Tmax); 15 min in data set [1] (mouse, plasma, C57BL mice, read-out: Plasma Tmax). The MRT in data set [1] (mouse, hippocampus, C57BL mice, read-out: Hippocampus MRT) is 79.8 min; in data set [1] (mouse, plasma, C57BL mice, read-out: Plasma MRT) it was 106 min. In data set [1] (mouse, plasma, C57BL mice, read-out: Plasma AUC0–24 h), the AUC(0-t) was found to be 1720 ng·h/mL. For the same compound, the “novel object recognition deficit (preference ratio)” value in the data set on P301S tau Tg mice is given as “dose-dependently ameliorated”.
